The record followed here is US11779573B2, “Crystalline forms of compounds for preventing or treating sensory hair cell death” (University of Washington, priority 2017, dated 2023).

Each structure is given as a SMILES string. Bounds are passed on as bounds.

Holding throughout (assay type): physicochemical
Data set [1] can be described thus: Dynamic vapor sorption (DVS), hygroscopicity and XRPD before/after. The conditions noted are these: for hygroscopicity / crystallinity / polymorphic form (XRPD) after DVS: mesylate; for crystallinity / polymorphic form (XRPD) after DVS: XRPD before and after DVS cycles of relative humidity. The protocol: DVS studies were performed using a Surface Measurement Systems Ltd. DVS-1 No Video. The sample, typically 20-30 mg, was loaded into a balance pan and equilibrated at 0% relative humidity (RH). After the material was dried, the RH was increased at 10% per step for 1 hour per increment, ending at 95% RH. After completion of the sorption cycle, the sample was dried using the same method, and the cycle was repeated. The software used for data collection was DVSWin v3.01 No Video. Data analysis was performed using DVS Standard Analysis Suite v6.3.0 (Standard).

Data set [2] is described as follows: Solubility in water of scaled-up salts of Compound B (salt screen). The protocol: These slurry experiments were also performed at gram scale with 25 mg/mL Compound B in 20 mL ethyl acetate with 1 equivalent acid.
Data set [3] in a line: Solubility of Compound 1 in water, shake-flask method. The following applies: thermodynamic from solid, visually determined at 20° C., water added stepwise to 10 mg. The protocol: Water was added stepwise to 10 mg of Compound 1, with 15 minutes in between additions, until complete dissolution was obtained.

As a reminder, the solubility is the concentration that dissolves in the medium under given conditions. On to `CN1[C@H]2CC[C@@H]1c1c(sc(NC(=O)Nc3ccc(Cl)cc3)c1C(N)=O)C2.CS(=O)(=O)O` [Compound 1, (4R,7S)-2-(3-(4-chlorophenyl)ureido)-9-methyl-5,6,7,8-tetrahydro-4H-4,7-epiminocyclohepta[b]thiophene-3-carboxamide mesylate], for which the “total mass uptake in the first sorption cycle” value in data set [1] (DVS, 0% to 95% RH, first sorption cycle) was found to be 1.8%. In data set [1] (DVS, 0% to 95% RH, second cycle), the “total mass uptake in the second cycle” value was 1.6%. Further, the hygroscopicity result is “slightly hygroscopic at high humidity levels” in data set [1] (DVS, listed as mesylate salt) and “slightly hygroscopic” in data set [1] (DVS). Moreover, the “crystallinity / polymorphic form (XRPD) after DVS” value in data set [1] (listed as mesylate salt) is reported as “remained unchanged”; in data set [1] it was “unchanged”. Moreover, the solubility in data set [2] is 97 to 970 mg/mL. In addition, the solubility at 15 min in data set [3] is > 97 mg/mL.
